Results taken from patent US7378409B2, “Substituted cycloalkylamine derivatives as modulators of chemokine receptor activity” (Bristol-Myers Squibb Company, priority 2003, dated 2008).

Assay: Long-term storage stability of the isolated salt
Format: physicochemical
Details: TFA salt of the title compound; converted to free base for that reason
Description: Example 3a, Step 5: A solution of (1R,3R,4S)-3-butyl-N1-isopropyl-N1-methylcyclohexane-1,4-diamine (58 mg, 0.25 mmol) in methylene chloride (5 mL) was charged successively with HATU (113 mg, 0.29 mmol), 2-(5-(trifluoromethyl)-1H-indazol-3-ylamino)acetic acid (58 mg, 0.22 mmol), and N,N-diisopropylethylamine (0.22 mL, 1.24 mmol). The reaction was stirred for 16 h at RT, concentrated in vacuo, and diluted with EtOAc. The organic phase was washed successively with sat. NaHCO3, water, 1N HCl, water, and brine before being dried (sodium sulfate), filtered, and concentrated in vacuo. […] Accordingly, this material was dissolved in EtOAc and the organic phase was washed with sat. NaHCO3 and brine before being dried (sodium sulfate), filtered, and concentrated in vacuo to afford the free base of the title compound, N-((1S,2R,4R)-2-butyl-4-(isopropyl(methyl)amino)cyclohexyl)-2-(5-(trifluoromethyl)-1H-indazol-3-ylamino)acetamide. MS found: (M+H)^+=468.4.

## CCCC[C@@H]1C[C@H](N(C)C(C)C)CC[C@@H]1NC(=O)CNc1n[nH]c2ccc(C(F)(F)F)cc12 [Example 3a, N-((1S,2R,4R)-2-butyl-4-(isopropyl(methyl)amino)cyclohexyl)-2-(5-(trifluoromethyl)-1H-indazol-3-ylamino)acetamide]
  stability to long-term storage: unstable to long-term storage
